The source of these data is ChEMBL document CHEMBL4507328, “Data for DCP probe BAY-390” (2021).

Usually inhibition stands for the change of the read-out against control, counted positive when it falls. For orientation: IC50 means the concentration needed to halve the response being measured.

In assay [1] the target is Beta-1 adrenergic receptor (Homo sapiens) (UniProt P08588). The following applies: Compound concentration 10.0 uM.
For assay [2], the target named is D(1A) dopamine receptor (Homo sapiens) (UniProt P21728). The following applies: Compound concentration 10.0 uM.
Assay [3] concerns the target Sodium-dependent noradrenaline transporter (Homo sapiens) (UniProt P23975). The conditions noted are these: Compound concentration 10.0 uM.
Assay [4] addresses Progesterone receptor (Homo sapiens) (UniProt P06401). The conditions noted are these: Compound concentration 10.0 uM.
Assay [5] concerns the target T1, Histamine H2 receptor (Homo sapiens, UniProt P25021). The conditions noted are these: Compound concentration 10.0 uM.
Assay [6] has as its target Muscarinic acetylcholine receptor M3 (Homo sapiens) (UniProt P20309). The conditions noted are these: Compound concentration 10.0 uM.
In assay [7] the target is Sodium-dependent dopamine transporter (Homo sapiens, UniProt Q01959). As to the kind of experiment: GPCRScan assay: inhibition of DAT. On the set-up: radioligand conc. used [nm] 3.6 – 16.0, parental cells stable HEK.
Sequence of Sodium-dependent dopamine transporter (Q01959 whole entry): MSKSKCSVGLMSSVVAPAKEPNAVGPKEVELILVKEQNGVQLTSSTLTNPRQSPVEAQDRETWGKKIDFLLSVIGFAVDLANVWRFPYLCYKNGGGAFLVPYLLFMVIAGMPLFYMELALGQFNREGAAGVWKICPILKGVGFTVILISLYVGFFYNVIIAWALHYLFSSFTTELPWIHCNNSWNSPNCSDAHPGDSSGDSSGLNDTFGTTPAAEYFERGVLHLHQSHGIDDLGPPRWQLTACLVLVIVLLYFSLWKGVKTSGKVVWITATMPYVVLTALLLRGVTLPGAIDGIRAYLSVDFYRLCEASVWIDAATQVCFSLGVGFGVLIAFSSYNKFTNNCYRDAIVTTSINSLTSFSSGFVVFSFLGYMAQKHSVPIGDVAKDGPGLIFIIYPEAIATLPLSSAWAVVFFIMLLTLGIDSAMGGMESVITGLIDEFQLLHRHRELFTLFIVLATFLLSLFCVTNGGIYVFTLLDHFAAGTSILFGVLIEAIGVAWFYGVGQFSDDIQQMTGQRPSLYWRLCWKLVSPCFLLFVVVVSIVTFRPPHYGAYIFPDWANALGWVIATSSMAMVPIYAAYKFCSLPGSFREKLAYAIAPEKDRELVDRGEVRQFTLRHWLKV
In assay [8] the target is B1 bradykinin receptor (Homo sapiens) (UniProt P46663). Kind of assay: Inhibition of Bradykinin B1 at 10 µM in the Eurofins-Panlabs radioligand binding assay (Eurofins_assay_212510). The following applies: Compound concentration 10.0 uM.
Sequence of B1 bradykinin receptor (Homo sapiens) (P46663 whole entry): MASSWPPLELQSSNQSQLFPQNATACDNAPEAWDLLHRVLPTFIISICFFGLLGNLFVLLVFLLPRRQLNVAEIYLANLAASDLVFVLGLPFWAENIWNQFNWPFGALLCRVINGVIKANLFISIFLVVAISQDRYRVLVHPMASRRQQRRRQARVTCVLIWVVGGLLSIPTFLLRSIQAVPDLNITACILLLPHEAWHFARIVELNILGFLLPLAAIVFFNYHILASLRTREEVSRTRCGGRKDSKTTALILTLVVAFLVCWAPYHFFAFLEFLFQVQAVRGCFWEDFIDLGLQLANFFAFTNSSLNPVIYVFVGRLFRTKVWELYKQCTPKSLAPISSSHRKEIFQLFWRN
Assay [9] has as its target Growth hormone secretagogue receptor type 1 (Homo sapiens) (UniProt Q92847). The conditions noted are these: Compound concentration 10.0 uM.
Assay [10] has as its target D(1B) dopamine receptor (Homo sapiens) (UniProt P21918). The following applies: Compound concentration 10.0 uM.
The target of assay [11] is Type-2 angiotensin II receptor (Homo sapiens) (UniProt P50052). The conditions noted are these: Compound concentration 10.0 uM.
Sequence of Type-2 angiotensin II receptor (Homo sapiens) (P50052 whole entry): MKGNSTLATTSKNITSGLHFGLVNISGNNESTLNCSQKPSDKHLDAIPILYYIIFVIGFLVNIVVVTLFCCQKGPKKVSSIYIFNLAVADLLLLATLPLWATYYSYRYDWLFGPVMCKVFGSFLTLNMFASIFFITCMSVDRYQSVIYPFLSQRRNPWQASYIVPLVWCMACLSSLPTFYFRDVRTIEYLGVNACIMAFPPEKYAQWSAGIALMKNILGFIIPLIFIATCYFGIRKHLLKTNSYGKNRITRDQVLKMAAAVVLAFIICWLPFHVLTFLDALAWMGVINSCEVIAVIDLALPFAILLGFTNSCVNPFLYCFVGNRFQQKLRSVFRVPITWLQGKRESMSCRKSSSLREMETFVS
In assay [12] the target is T2, Muscarinic acetylcholine receptor M1 (Homo sapiens) (UniProt P11229).
T2 sequence (whole entry): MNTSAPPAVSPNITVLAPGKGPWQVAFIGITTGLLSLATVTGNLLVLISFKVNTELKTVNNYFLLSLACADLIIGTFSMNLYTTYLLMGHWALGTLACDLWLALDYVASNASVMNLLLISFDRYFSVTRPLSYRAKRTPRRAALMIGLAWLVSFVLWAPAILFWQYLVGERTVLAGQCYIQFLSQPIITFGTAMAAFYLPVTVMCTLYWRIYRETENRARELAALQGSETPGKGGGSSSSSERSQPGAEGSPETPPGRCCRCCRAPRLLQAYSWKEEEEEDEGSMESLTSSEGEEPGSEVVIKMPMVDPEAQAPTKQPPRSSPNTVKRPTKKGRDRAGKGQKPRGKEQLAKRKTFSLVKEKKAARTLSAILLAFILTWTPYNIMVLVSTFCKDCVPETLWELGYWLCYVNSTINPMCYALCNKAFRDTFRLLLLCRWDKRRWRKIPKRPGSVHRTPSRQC
The conditions noted are these: Compound concentration 10.0 uM.

Assay [13] deals with Histamine H3 receptor (Homo sapiens) (UniProt Q9Y5N1). The following applies: Compound concentration 10.0 uM.
For a further assay, the target named is Progesterone receptor (Homo sapiens, UniProt P06401). As to the kind of experiment: Inhibition of Progesterone PR-B at compound concentration of 10.0 uM in the Eurofins-Panlabs radioligand binding assay (Eurofins_assay_299005). On the set-up: ligand concentration 0.5 nM, non-specific ligand with concentration 1 uM R5020, incubation time 20 h, incubation temperature 4 C.
Sequence of Progesterone receptor (P06401 whole entry): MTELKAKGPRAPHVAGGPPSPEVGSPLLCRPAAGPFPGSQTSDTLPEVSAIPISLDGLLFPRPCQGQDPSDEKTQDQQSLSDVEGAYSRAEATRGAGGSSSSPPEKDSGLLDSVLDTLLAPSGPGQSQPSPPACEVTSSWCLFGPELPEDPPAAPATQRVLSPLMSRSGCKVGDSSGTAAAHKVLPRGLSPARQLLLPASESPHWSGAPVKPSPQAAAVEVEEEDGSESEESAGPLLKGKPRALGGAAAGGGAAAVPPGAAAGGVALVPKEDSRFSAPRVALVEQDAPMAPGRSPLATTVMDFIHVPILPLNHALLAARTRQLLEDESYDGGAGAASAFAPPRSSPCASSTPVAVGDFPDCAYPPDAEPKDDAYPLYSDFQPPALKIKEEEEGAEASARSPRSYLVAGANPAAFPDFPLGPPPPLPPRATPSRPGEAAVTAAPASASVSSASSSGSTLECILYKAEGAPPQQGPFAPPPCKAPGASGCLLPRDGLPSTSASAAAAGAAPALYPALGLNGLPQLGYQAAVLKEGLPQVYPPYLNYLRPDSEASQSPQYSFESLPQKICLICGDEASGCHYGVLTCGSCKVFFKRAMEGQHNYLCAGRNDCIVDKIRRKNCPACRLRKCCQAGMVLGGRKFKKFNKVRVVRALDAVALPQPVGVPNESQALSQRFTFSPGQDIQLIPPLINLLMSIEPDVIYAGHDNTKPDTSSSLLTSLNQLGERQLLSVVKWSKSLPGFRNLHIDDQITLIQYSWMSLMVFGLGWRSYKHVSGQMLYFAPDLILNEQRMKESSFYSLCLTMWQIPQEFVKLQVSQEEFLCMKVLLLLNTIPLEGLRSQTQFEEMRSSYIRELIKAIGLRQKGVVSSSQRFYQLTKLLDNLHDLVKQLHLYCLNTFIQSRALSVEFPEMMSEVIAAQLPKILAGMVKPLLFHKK

The target of assay [14] is Voltage-dependent T-type calcium channel subunit alpha-1H (Homo sapiens, UniProt O95180). Kind of assay: Selectivity screen (CACNA1H).
Assay [15] addresses D(2) dopamine receptor (Homo sapiens) (UniProt P14416). The following applies: Compound concentration 10.0 uM.
Assay [16] concerns the target Adenosine receptor A3 (Homo sapiens) (UniProt P0DMS8). The following applies: Compound concentration 10.0 uM.
Assay [17] deals with Delta-type opioid receptor (Homo sapiens) (UniProt P41143). The following applies: Compound concentration 10.0 uM.
Assay [18] addresses T3, Muscarinic acetylcholine receptor M4 (Homo sapiens) (UniProt P08173).
T3 sequence (whole entry): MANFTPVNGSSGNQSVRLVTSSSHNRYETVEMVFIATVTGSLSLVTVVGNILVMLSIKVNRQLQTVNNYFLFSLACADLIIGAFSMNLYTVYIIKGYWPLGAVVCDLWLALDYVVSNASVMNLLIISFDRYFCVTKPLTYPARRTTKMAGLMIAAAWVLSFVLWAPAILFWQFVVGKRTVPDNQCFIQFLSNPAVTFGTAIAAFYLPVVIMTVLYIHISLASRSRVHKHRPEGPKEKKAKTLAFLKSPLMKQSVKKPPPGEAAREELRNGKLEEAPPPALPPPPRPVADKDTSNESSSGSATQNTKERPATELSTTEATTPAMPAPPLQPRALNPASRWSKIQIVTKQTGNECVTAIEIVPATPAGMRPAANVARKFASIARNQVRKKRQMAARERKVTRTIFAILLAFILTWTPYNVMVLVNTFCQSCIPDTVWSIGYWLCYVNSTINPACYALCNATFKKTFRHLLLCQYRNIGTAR
The following applies: Compound concentration 10.0 uM.

The target of assay [19] is D(2) dopamine receptor (Homo sapiens) (UniProt P14416). The following applies: Compound concentration 10.0 uM. The source holds these as a separate data set.
Sequence of D(2) dopamine receptor (Homo sapiens) (P14416 whole entry): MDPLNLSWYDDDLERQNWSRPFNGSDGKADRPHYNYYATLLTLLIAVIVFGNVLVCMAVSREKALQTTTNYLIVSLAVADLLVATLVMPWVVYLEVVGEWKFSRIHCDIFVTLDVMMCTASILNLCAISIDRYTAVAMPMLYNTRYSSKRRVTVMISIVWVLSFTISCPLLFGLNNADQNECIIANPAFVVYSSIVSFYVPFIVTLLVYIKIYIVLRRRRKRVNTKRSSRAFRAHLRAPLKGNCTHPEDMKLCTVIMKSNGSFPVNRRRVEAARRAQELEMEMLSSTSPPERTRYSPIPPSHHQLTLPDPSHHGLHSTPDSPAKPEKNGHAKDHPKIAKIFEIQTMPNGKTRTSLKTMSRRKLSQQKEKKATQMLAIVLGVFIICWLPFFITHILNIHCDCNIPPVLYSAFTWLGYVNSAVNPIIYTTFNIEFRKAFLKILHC
Assay [20] concerns the target T4, Alpha-1A adrenergic receptor (Homo sapiens) (UniProt P35348).
T4 sequence (whole entry): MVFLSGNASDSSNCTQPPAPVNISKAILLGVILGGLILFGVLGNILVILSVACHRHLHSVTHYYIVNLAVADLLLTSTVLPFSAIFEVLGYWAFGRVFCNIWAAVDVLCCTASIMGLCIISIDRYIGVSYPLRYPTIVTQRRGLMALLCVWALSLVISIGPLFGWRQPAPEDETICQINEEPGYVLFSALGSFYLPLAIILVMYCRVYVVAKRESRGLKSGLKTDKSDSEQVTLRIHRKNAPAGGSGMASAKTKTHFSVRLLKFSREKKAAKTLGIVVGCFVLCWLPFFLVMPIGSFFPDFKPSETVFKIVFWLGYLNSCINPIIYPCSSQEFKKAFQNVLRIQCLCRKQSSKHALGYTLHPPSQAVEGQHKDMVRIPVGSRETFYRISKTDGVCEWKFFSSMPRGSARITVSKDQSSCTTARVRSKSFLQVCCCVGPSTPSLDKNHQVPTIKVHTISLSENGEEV
The following applies: Rattus norvegicus; Compound concentration 10.0 uM.

Assay [21] is described as follows: FLIPR Ca2+ assay (dog TRPA1). On the set-up: species or system Canis lupus familiaris.
In assay [22] the target is Glutamate receptor ionotropic, kainate (Rattus norvegicus) (UniProt P22756+Q01812+P42260+P42264+Q63273). As to the kind of experiment: Inhibition of Glutamate, Kainate at 10 µM in the Eurofins-Panlabs radioligand binding assay (Eurofins_assay_232700). The following applies: Compound concentration 10.0 uM.
The target of assay [23] is 5-hydroxytryptamine receptor 6 (Homo sapiens) (UniProt P50406). The conditions noted are these: Compound concentration 10.0 uM.
Sequence of 5-hydroxytryptamine receptor 6 (Homo sapiens) (P50406 whole entry): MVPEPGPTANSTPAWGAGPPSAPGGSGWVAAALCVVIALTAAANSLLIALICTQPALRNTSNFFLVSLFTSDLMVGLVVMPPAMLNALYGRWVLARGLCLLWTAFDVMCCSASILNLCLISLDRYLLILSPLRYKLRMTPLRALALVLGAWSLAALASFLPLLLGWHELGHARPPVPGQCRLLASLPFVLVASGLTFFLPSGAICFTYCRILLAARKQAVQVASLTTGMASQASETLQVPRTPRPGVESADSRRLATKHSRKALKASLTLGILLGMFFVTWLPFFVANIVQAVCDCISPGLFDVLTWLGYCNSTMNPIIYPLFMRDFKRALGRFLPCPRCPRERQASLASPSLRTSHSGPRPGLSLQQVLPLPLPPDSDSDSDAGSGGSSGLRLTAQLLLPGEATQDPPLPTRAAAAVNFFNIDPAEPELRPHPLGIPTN
Assay [24] has as its target 5-hydroxytryptamine receptor 1D (Homo sapiens) (UniProt P28221). The following applies: Compound concentration 10.0 uM.
The target in assay [25] is T1, Histamine H2 receptor. As to the kind of experiment: GPCRScan assay: inhibition of H2. On the set-up: radioligand conc. used [nm] 0.02 – 0.05, parental cells Stable HEK.

The structures appear in SMILES notation. Calls of active or inactive are those of the source. The calls are words filed in the database; no cut-off is given here. Bounds are passed on as bounds.

T1 sequence (P25021 whole entry): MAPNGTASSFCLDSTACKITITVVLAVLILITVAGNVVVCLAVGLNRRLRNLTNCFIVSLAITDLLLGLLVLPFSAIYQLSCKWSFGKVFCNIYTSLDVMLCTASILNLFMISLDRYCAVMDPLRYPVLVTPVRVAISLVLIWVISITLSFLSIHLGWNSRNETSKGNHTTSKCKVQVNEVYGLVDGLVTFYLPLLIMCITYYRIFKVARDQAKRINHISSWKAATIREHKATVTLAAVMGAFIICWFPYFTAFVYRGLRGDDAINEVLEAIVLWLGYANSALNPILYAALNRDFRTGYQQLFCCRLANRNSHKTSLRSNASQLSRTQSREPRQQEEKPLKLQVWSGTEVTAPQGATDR
Sequence of Sodium-dependent noradrenaline transporter (Homo sapiens) (P23975 whole entry): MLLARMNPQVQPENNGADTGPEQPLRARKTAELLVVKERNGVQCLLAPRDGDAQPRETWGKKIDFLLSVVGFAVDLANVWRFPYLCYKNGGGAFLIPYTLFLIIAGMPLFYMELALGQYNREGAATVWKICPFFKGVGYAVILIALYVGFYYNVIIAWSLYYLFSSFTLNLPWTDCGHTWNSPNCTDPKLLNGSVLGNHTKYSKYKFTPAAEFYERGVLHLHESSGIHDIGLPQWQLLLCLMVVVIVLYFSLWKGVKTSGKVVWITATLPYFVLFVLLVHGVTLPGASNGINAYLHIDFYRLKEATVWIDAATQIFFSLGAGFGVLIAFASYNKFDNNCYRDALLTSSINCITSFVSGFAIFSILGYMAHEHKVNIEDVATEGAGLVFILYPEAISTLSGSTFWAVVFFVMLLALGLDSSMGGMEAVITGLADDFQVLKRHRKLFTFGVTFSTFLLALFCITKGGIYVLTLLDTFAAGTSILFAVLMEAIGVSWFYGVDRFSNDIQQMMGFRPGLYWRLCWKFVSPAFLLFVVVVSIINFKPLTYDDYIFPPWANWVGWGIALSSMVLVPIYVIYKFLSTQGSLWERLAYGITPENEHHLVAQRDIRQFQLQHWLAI
Sequence of Progesterone receptor (Homo sapiens) (P06401 whole entry): as the sequence (P06401 whole entry) above
Sequence of Growth hormone secretagogue receptor type 1 (Homo sapiens) (Q92847 whole entry): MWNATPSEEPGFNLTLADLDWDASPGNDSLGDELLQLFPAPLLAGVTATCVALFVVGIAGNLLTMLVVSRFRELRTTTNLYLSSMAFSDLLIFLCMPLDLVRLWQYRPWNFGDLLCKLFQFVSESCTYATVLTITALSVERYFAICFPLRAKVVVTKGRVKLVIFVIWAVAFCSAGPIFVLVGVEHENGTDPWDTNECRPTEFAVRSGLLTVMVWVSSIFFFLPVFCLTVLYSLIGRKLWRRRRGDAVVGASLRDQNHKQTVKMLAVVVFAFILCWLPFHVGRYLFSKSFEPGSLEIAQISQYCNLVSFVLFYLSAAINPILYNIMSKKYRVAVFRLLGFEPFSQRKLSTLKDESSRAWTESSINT
Sequence of 5-hydroxytryptamine receptor 1D (Homo sapiens) (P28221 whole entry): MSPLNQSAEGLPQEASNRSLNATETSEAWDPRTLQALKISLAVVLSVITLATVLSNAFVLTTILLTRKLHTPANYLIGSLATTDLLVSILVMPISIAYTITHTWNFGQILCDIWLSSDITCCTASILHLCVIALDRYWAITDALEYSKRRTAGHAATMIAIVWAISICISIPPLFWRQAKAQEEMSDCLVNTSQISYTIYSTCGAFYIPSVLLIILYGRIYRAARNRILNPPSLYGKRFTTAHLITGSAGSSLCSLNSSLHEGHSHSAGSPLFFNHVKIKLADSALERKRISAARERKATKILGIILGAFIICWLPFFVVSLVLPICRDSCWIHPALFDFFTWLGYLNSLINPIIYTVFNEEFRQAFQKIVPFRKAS

With `O[C@]1(C(F)(F)F)CCCC[C@H]1Nc1ccc(F)cc1` [BAY-390], the inhibition in [1] was 3%; in [2], 15.6%; in [3] it was 0.78%; in assay [4], 65%; on Histamine H2 receptor [5], -8%; in [6] it was 21%. Besides, the inhibition in assay [8] is 9%; in assay [9] it was 3%; in assay [10] it was 30.2%; in assay [11] it was 1%; in [12], -1%; in [13], -4%. Also, the inhibition in assay [15] is 13%; in assay [16] it was 4%; in assay [17] it was -6%; in assay [18] it was 14%; in [19], 12%; in assay [20], 18%. In addition, the inhibition in assay [22] is -3%. For the same molecule, the Ki in assay [7] (read-out: Ki) was 1.38 µM; in assay [7] (read-out: pKi (converted)), 1.35 µM; on Progesterone receptor, 4 µM. Besides, the IC50 is 5 µM at Progesterone receptor, > 30 µM (not active) in assay [14] and 0.081 µM (active) in assay [21].
As for `COc1cc(N[C@@H]2CCCC[C@]2(O)C(F)(F)F)ccc1F` [BAY-9897], the inhibition was -4.02% in assay [23] and 2.77% in assay [24]. The Ki at Histamine H2 receptor [25] stood at 9.78 µM.
